Laboratory results as given in ChEMBL document CHEMBL3526109 (Drug Metab Dispos, 2011).

Tests used:
Settings in all cases: in vivo
Rattus norvegicus [1] = assay: AUC (0 to 6 hrs) as total radioactivity in Sprague-Dawley rat plasma at 100 mg/kg, po administered as single oral dose by HPLC analysis; format: ADME, organism-based
Homo sapiens [2] = assay: AUC (0 to 12 hrs) as total radioactivity in human plasma at 800 mg, po administered as single oral dose by HPLC analysis; format: ADME, organism-based
Rattus norvegicus [3] = assay: Tmax of total radioactivity in Sprague-Dawley rat plasma treated at 100 mg/kg, po administered as single dose via gavage by liquid scintillation counting; format: ADME, organism-based
Cynomolgus monkey [4] = assay: Tmax of total radioactivity in cynomolgus monkey plasma treated at 10 mg/kg, po administered as single dose via gavage by liquid scintillation counting; format: ADME, organism-based, Macaca fascicularis
[5] = Drug recovery in Sprague-Dawley rat urine at 100 mg/kg, po administered as single dose via gavage measured during 0 to 168 hrs by liquid scintillation counting; format: ADME, organism-based
[6] = Drug recovery in bile duct-cannulated rat feces at 100 mg/kg, po administered as single dose via gavage measured during 0 to 48 hrs by liquid scintillation counting; format: ADME, organism-based
[7] = Drug recovery in Sprague-Dawley rat feces at 100 mg/kg, po administered as single dose via gavage measured during 0 to 168 hrs by liquid scintillation counting; format: ADME, organism-based
[8] = Drug recovery in cynomolgus monkey feces at 10 mg/kg, po administered as single dose via gavage measured during 0 to 168 hrs by liquid scintillation counting; format: ADME, organism-based, Macaca fascicularis
[9] = Drug recovery in human feces at 800 mg, po administered as single dose via gavage measured during 0 to 288 hrs by liquid scintillation counting; format: ADME, organism-based
Homo sapiens [10] = assay: Cmax as total radioactivity in human plasma treated at 800 mg, po administered as single dose […] by mass spectrometry; format: ADME, organism-based
[11] = Drug recovery in bile duct-cannulated cynomolgus monkey feces at 10 mg/kg, po administered as single dose via gavage measured during 0 to 72 hrs by liquid scintillation counting; format: ADME, organism-based, Macaca fascicularis
[12] = Drug recovery in bile duct-cannulated cynomolgus monkey urine at 10 mg/kg, po administered as single dose via gavage measured during 0 to 72 hrs by liquid scintillation counting; format: ADME, organism-based, Macaca fascicularis
Rattus norvegicus [13] = assay: Cmax as total radioactivity in Sprague-Dawley rat plasma treated at 100 mg/kg, po administered as single dose via gavage by liquid scintillation counting; format: ADME, organism-based
Rattus norvegicus [14] = assay: Total drug recovery in bile duct-cannulated rat at 100 mg/kg, po administered as single dose via gavage measured during 0 to 48 hrs by liquid scintillation counting; format: ADME, organism-based
Cynomolgus monkey [15] = assay: Total drug recovery in bile duct-cannulated cynomolgus monkey at 10 mg/kg, po administered as single dose via gavage measured during 0 to 72 hrs by liquid scintillation counting; format: ADME, organism-based, Macaca fascicularis
[16] = Drug recovery in human urine at 800 mg, po administered as single dose via gavage measured during 0 to 288 hrs by liquid scintillation counting; format: ADME, organism-based
Cynomolgus monkey [17] = assay: AUC (0 to t) as total radioactivity in cynomolgus monkey plasma treated at 10 mg/kg, po administered as single dose via gavage by liquid scintillation counting; format: ADME, organism-based, Macaca fascicularis
Homo sapiens [18] = assay: AUC (0 to t) as total radioactivity in human plasma treated at 800 mg, po administered as single dose […] by mass spectrometry; format: ADME, organism-based
[19] = Drug recovery in bile duct-cannulated cynomolgus monkey bile at 10 mg/kg, po administered as single dose via gavage measured during 0 to 72 hrs by liquid scintillation counting; format: ADME, organism-based, Macaca fascicularis
Cynomolgus monkey [20] = assay: Cmax as total radioactivity in cynomolgus monkey plasma treated at 10 mg/kg, po administered as single dose via gavage by liquid scintillation counting; format: ADME, organism-based, Macaca fascicularis
[21] = Drug recovery in bile duct-cannulated rat urine at 100 mg/kg, po administered as single dose via gavage measured during 0 to 48 hrs by liquid scintillation counting; format: ADME, organism-based
[22] = Drug recovery in bile duct-cannulated rat bile at 100 mg/kg, po administered as single dose via gavage measured during 0 to 48 hrs by liquid scintillation counting; format: ADME, organism-based
Homo sapiens [23] = assay: Tmax of total radioactivity in human plasma treated at 800 mg, po administered as single dose […] by mass spectrometry; format: ADME, organism-based
Cynomolgus monkey [24] = assay: Total drug recovery in cynomolgus monkey at 10 mg/kg, po administered as single dose via gavage measured during 0 to 168 hrs by liquid scintillation counting; format: ADME, organism-based, Macaca fascicularis
Cynomolgus monkey [25] = assay: AUC (0 to 12 hrs) as total radioactivity in cynomolgus monkey plasma at 10 mg/kg, po administered as single oral dose by HPLC analysis; format: ADME, organism-based, Macaca fascicularis
Homo sapiens [26] = assay: Total drug recovery in human at 800 mg, po administered as single dose […] measured during 0 to 288 hrs by liquid scintillation counting; format: ADME, organism-based
Rattus norvegicus [27] = assay: AUC (0 to t) as total radioactivity in Sprague-Dawley rat plasma treated at 100 mg/kg, po administered as single dose via gavage by liquid scintillation counting; format: ADME, organism-based
Rattus norvegicus [28] = assay: Total drug recovery in Sprague-Dawley rat at 100 mg/kg, po administered as single dose via gavage measured during 0 to 168 hrs by liquid scintillation counting; format: ADME, organism-based
[29] = Drug recovery in cynomolgus monkey urine at 10 mg/kg, po administered as single dose via gavage measured during 0 to 168 hrs by liquid scintillation counting; format: ADME, organism-based, Macaca fascicularis

Cc1cc2c(F)c(Oc3n[14cH]nn4cc(OC[C@@H](C)OC(=O)[C@H](C)N)c(C)c34)ccc2[nH]1
AUC (Rattus norvegicus [1]): 139766 ugequiv/l.hr | AUC (Homo sapiens [2]): 65627.4 ugequiv/l.hr | Tmax (Rattus norvegicus [3]): 2 h | Tmax (Cynomolgus monkey [4]): 2 h | Radiolabel recovery [5]: 9.46% | Radiolabel recovery [6]: 3.31% | Radiolabel recovery [7]: 83.58% | Radiolabel recovery [8]: 76.31% | Radiolabel recovery [9]: 81.54% | Cmax (Homo sapiens [10]): 9400 ng/mL | Radiolabel recovery [11]: 26.41% | Radiolabel recovery [12]: 3.56% | Cmax (Rattus norvegicus [13]): 35200 ng/mL | Radiolabel recovery (Rattus norvegicus [14]): 88.99% | Radiolabel recovery (Cynomolgus monkey [15]): 81.43% | Radiolabel recovery [16]: 12.18% | AUCt (Cynomolgus monkey [17]): 90.3 µg·h/mL | AUCt (Homo sapiens [18]): 203.8 µg·h/mL | Radiolabel recovery [19]: 47.66% | Cmax (Cynomolgus monkey [20]): 9700 ng/mL | Radiolabel recovery [21]: 7.33% | Radiolabel recovery [22]: 78.35% | Tmax (Homo sapiens [23]): 1 h | Radiolabel recovery (Cynomolgus monkey [24]): 89.79% | AUC (Cynomolgus monkey [25]): 69315 ugequiv/l.hr | Radiolabel recovery (Homo sapiens [26]): 93.72% | AUCt (Rattus norvegicus [27]): 250 µg·h/mL | Radiolabel recovery (Rattus norvegicus [28]): 93.68% | Radiolabel recovery [29]: 10.3%
